Measured values published in patent publication US8785434B2, “Antiviral compounds” (Prosetta Antiviral Inc., priority 2010, dated 2014).

Tested on: respiratory viruses (Corona Virus on MRC5 Cells, Influenza Virus A on MDCK Cells, Respiratory Syncytial Virus on HEp2 cells, Adenovirus serotype 5 on A549 …)
Assay: Respiratory viruses: virus grown in the presence of compound, infectious virus titrated by TCID50
Assay type: cell-based
Details: qualitative statement; compound tested at 10 μM, 2 μM, 0.4 μM and 0.08 μM
Experimental: The activities of compounds of the invention were determined for the following viruses using the protocol below:
Corona Virus on MRC5 Cells
Influenza Virus A on MDCK Cells
Respiratory Syncytial Virus on HEp2 cells
Adenovirus serotype 5 on A549 cells
Human Rhinovirus on H1Hela Cells
Herpes Simplex Virus 1 on Vero cells
Virus was grown in the presence of four dilutions (10 μM, 2 μM, 0.4 μM and 0.08 μM) of the chemical compound tested with two controls using standard methods and materials for the relevant virus. The infected cell extract was collected using known methods, and the infectious virus concentration was determined using standard techniques.
Each well was titrated by TCID50. Four serial dilutions in quadruplicate required to determine the titer of each well. To assay 36 replicates as directed, one hundred eight (108) 96-well plates will be required. Each drug was tested at four dilutions against one virus will require TCID50 titers of 18 sample wells.

Cc1cc(N(C)C)cc2[s+]c3cc(N4CCN(C)CC4)cc(C)c3nc12.[I-] [3-(Dimethylamino)-1,9-dimethyl-7-(4-methylpiperazin-1-yl)phenothiazin-5-ium iodide]
activity across all of the respiratory viruses tested (pan-respiratory anti-viral activity): surprisingly strong activity across all of the respiratory viruses tested
